For one experiment, the system named is MCF7 breast cancer cells. The experiment can be described thus: Proliferation with ALT and Palbociclib at IC50 concentration (FIG. 9). It is filed as cell-based, human. The note with it: drugs at IC50 concentration, replaced every two days. The procedure: FIGS. 9A-9B: AltBrk Synergizes with Palbociclib. ALT, Palbociclib, or Brk alone or in combination were added to or expressed in MCF7 breast cancer cells on day 2 post plating. Drugs were added at their IC50 concentration, based on previous results. ALT is expressed from an ALT-MCF7 tetracycline inducible cell line generated in the Blain lab. When tetracycline is added to the cell culture media, ALT is expressed in these cells. Vector: no tetracycline was added, so no ALT induction was detected. (FIG. 9A) Cells were harvested and counted every two days, as a measure of proliferation. Proliferation is plotted as a percentage relative to that seen in the DMSO treated control. Drugs and media were replaced every two days. (FIG. 9B) Viability was measured by trypan blue staining, and plotted relative to viability seen in the DMSO treated control.
Additional experiments were performed assessing activity of Brk in combination with Palbociclib. The data presented in FIGS. 9A and 9B reveal that Palbociclib and Brk inhibit proliferation for 2 days, and then resistance is observed (proliferation increases). Alt maintained arrest for roughly 10 days (50% inhibition of proliferation is detected). […] Alt-Brk/Palbociclib combination leads to a more durable cell cycle arrest. Mono therapy treated cells start to become resistant between day 8-10. […]

A further experiment deals with MCF7-ALT cells. Kind of experiment: Long-term proliferation arrest at IC100 (FIG. 15A). In kind it is cell-based, human. The note with it: IC100 Palbociclib, doxycycline induced ALT, replenished every two days. Here is the method:
FIGS. 15A-15C: ALT and PD treatment increases senescence, a clinical goal. FIG. 15A: MCF7-ALT cells were treated with IC100 concentration of Palbociclib (PD) or doxycycline to induce ALT. Drugs were replenished every two days and proliferation was determined by cell counting as indicated. Proliferation rates were standardized to the rate of proliferation seen in DMSO treated cells (control). PD treated cells were arrested for 10 days, before escape (proliferation) was detected. ALT expressing cells were arrested for 18 days before escape (proliferation) was detected. ALT expressing and PD treated cells were arrested for 30 days, with no escape detected. […] Proliferation was assessed by counting. […] Viability was measured by trypan blue staining and the ALT expressing, PD treated cells that weren't growing were viable. […]
MCF7-ALT cells were treated with a IC100 concentration of Palbociclib (PD) or doxycycline to induce ALT. Drugs were replenished every two days and proliferation was determined by cell counting as indicated. […] PD treated cells were arrested for 10 days, before escape (proliferation) was detected. ALT expressing cells were arrested for 18 days before escape (proliferation) was detected. ALT expressing and PD treated cells were arrested for 30 days, with no escape detected. […] Proliferation was assessed by counting. […]

Experiment [1] has as its system MCF7 WT Brk expressing cells. Kind of experiment: PD0332991 inhibitor treatment, proliferation by cell counting. In kind it is cell-based. The note with it: Homo sapiens, 48 h post treatment, read-out: IC50 (concentration needed to inhibit proliferation by 50%). Here is the method:
(§1) Immunoprecipitation with IgG served as a negative control (FIG. 6C). DNA with Hoechst stain is in blue and is merged with red and green staining (FIG. 6D). (FIG. 6E) Cdk4 was immunoprecipitated from the lysates and recombinant Rb was added to perform an in vitro kinase assay in the presence of ATP Immunoblot analysis was performed to probe for Rb, Ser780 pRb and cdk4 Immunoprecipitation with IgG served as a negative control. (FIG. 6F) Cells were treated with different concentrations of PD0332291 or DMSO as a control at Day 2. Total cell numbers were analyzed by counting 24 and 48 hours post treatment to determine IC50 values. (FIG. 6G) Cells were treated with different concentration of PD032291 or DMSO and analyzed by PI staining and FACS analysis. % G1 content is plotted.
(§2) The PCR fragments were ligated to the T7pGEMEX human His-p27 or T7pGEMEX human Flag-p27 plasmid for expression in E. coli. Mutants Y74F, Y88F, and Y88/89F were previously described (12). Flag-tagged p27 mutants were purified by Flag-immunoprecipitation with Flag antibody (M-2, Sigma F-18C9) and eluted with Flag peptide (Sigma F-4799) according to manufacturer's protocol. His-tagged p27 mutants were purified by FPLC via his-trap affinity chromatography (His-Trap HP, GE Healthcare 71-5247-01). The affinity column was stripped according to manufacturer's protocol, then washed with 5 column volumes of 100 mM CoCl2. The crude material was applied with a loading buffer consisting of 6 M urea, 500 mM NaCl, 50 mM Tris-HCl, pH 7.5 and 20% glycerol. The material was washed with 500 mM NaCl, 50 mM Tris-HCl, pH 7.5 and 10% glycerol. The purified material was eluted with 500 mM imidazole,20 mM Hepes pH 7.4 and 1 M KCl. The protein was then dialyzed overnight in a solution of 25 mM Hepes pH 7.7, 150 mM NaCl, 5 mM MgCl2 and 0.05% NP40.

Another experiment deals with MCF10A. The description is as above. In kind it is cell-based. The note with it: Homo sapiens, MCF-10A, 48 h post treatment, read-out: IC50 (concentration needed to inhibit proliferation by 50%). Here is the method:
as §1, §2

A further experiment has as its system Mock MCF7 cells. The description is as above. It is filed as cell-based. The note with it: Homo sapiens, 48 h post treatment, read-out: IC50 (concentration needed to inhibit proliferation by 50%). Here is the method:
as §1, §2

For another experiment, the system named is MDA MB-468 cells. The experiment is described as above. It is filed as cell-based. The note with it: Homo sapiens, 48 h post treatment, read-out: IC50 (concentration needed to inhibit proliferation by 50%). Here is the method: as §1, §2

Turning to `CC(=O)c1c(C)c2cnc(Nc3ccc(N4CCNCC4)cn3)nc2n(C2CCCC2)c1=O` [PD0332991], the “duration of proliferation inhibition / arrest” value in the experiment with MCF7 breast cancer cells is reported as 2 days. For the same molecule, the “time arrested before escape (proliferation)” value with MCF7-ALT cells was 10 days. The IC50 was over 600 nM in experiment [1], 110 nM with MCF10A, 150 nM with Mock MCF7 cells and 350 nM in the experiment on MDA MB-468 cells.

For the origin of these results see patent US11260100B2, “Compositions targeting the interaction domain between p27Kip1 and Brk and methods of use thereof to inhibit p27 Y phosphorylation and cdk4 activity” (The Research Foundation for the State University of New York, priority 2014, dated 2022).
